Active and inactive are the calls of the source. The rule behind the calls is not given here.

The test system of assay [1] is KCL-22. Put plainly: Inhibition of cell expansion in human KCL22 cells at 0.3 to 3 uM incubated for 48 hrs by trypan blue dye exclusion counting method. The class given is functional, cell-based.
Assay [2] concerns KCL-22. Nature of the assay: Inhibition of cell expansion in human KCL22 cells at 3 uM incubated for 48 hrs in presence of 10 nM nilotinib by trypan blue dye exclusion counting method. Type of assay: functional, cell-based.
Assay [3] deals with KCL-22. Nature of the assay: Induction of cell cycle arrest in human KCL22 cells assessed as accumulation at G0-G1 phase at 3 uM incubated for 72 hrs by propidium iodide staining based flow cytometry analysis (reference value: 57.4%). The class given is functional. Background: Flow cytometry measures light scatter and fluorescence of single cells or particles in a stream.
For assay [4], the system named is KCL-22. Nature of the assay: Induction of cell cycle arrest in human KCL22 cells assessed as accumulation at subG0 phase at 3 uM incubated for 72 hrs by propidium iodide staining based flow cytometry analysis (reference value: 3.91%). Type of assay: functional.
For assay [5], the system named is KCL-22. Put plainly: Induction of cell cycle arrest in human KCL22 cells assessed as accumulation at S phase at 3 uM incubated for 72 hrs by propidium iodide staining based flow cytometry analysis (reference value: 23.7%). Type of assay: functional.
For assay [6], the system named is KCL-22. Put plainly: Induction of cell cycle arrest in human KCL22 cells assessed as accumulation at G2-M phase at 3 uM incubated for 72 hrs by propidium iodide staining based flow cytometry analysis (reference value: 14%). The class given is functional.
The test system of assay [7] is KCL-22. Put plainly: Inhibition of cell expansion in human KCL22 cells assessed as combination index at 3 uM incubated for 48 hrs in presence of 10 nM nilotinib by trypan blue dye exclusion counting method. Type of assay: functional.
For assay [8], the species on record is Homo sapiens. Nature of the assay: Binding affinity to E2F1 consensus sequence DNA in human KCL22 cells assessed as reduction in MRRF gene expression at 3 uM incubated for 24 hrs by RT-qPCR analysis relative to control. Type of assay: cell-based.
The species named for assay [9] is Homo sapiens. Put plainly: Binding affinity to E2F1 consensus sequence DNA in human KCL22 cells assessed as reduction in MCM2 gene expression at 3 uM incubated for 24 hrs by RT-qPCR analysis relative to control. The class given is cell-based.
For assay [10], the species on record is Homo sapiens. Put plainly: Binding affinity to E2F1 consensus sequence DNA in human KCL22 cells assessed as reduction in SF3B4 gene expression at 3 uM incubated for 24 hrs by RT-qPCR analysis relative to control. Type of assay: cell-based. (In general: Real-time PCR tracks product formation cycle by cycle.)
Assay [11] is filed under the species Homo sapiens. Put plainly: Binding affinity to E2F1 consensus sequence DNA in human KCL22 cells assessed as reduction in GNA13 gene expression at 3 uM incubated for 24 hrs by RT-qPCR analysis relative to control. The class given is cell-based.
The species entered for assay [12] is Homo sapiens. Nature of the assay: Binding affinity to E2F1 consensus sequence DNA in human KCL22 cells assessed as reduction in PSMB8 gene expression at 3 uM incubated for 24 hrs by RT-qPCR analysis relative to control. Type of assay: cell-based.
The species entered for assay [13] is Homo sapiens. Nature of the assay: Binding affinity to E2F1 consensus sequence DNA in human KCL22 cells assessed as reduction in PET112L gene expression at 3 uM incubated for 24 hrs by RT-qPCR analysis relative to control. Type of assay: cell-based.
For assay [14], the species on record is Homo sapiens. Nature of the assay: Binding affinity to E2F1 consensus sequence DNA in human KCL22 cells assessed as reduction in ZNF354B gene expression at 3 uM incubated for 24 hrs by RT-qPCR analysis relative to control. The class given is cell-based.
Assay [15] deals with KCL-22. Put plainly: Up-regulation of TRIM45 gene expression in human KCL22 cells at 3 uM incubated for 24 hrs by RT-qPCR analysis relative to control. The class given is functional, cell-based.
The subject of assay [16] is KCL-22. Put plainly: Up-regulation of RARS2 gene expression in human KCL22 cells at 3 uM incubated for 24 hrs by RT-qPCR analysis relative to control. Type of assay: functional, cell-based.
In assay [17] the test system is KCL-22. Put plainly: Inhibition of cell expansion in human KCL22 cells at 10 nM incubated for 48 hrs by trypan blue dye exclusion counting method. The class given is functional, cell-based.

With `CN(C)CCCNC(=O)c1cc(NC(=O)c2cc(NC(=O)c3cc(NC(=O)c4cc(NC(=O)[C@H](N)CCNC(=O)c5nc(NC(=O)c6nc(NC(=O)c7cc(NC(=O)c8nccn8C)cn7C)cn6C)cn5C)cn4C)cn3C)cn2C)cn1C`, the inhibition result in assay [1] and in assay [2] was “Active” each time. The Activity in [3] is listed as 58.1%; in assay [4] it was 3.84%; in [5], 26.4%; in [6] it was 10.8%. Also, the CI in assay [7] is reported as greater than 1. Also, the result in assay [8], in assay [9], in assay [10], in [11], in assay [12] and in assay [13] was Active. Further, the result in assay [14], in assay [15] and in [16] was Active.

As to `Cc1cn(-c2cc(NC(=O)c3ccc(C)c(Nc4nccc(-c5cccnc5)n4)c3)cc(C(F)(F)F)c2)cn1`, the inhibition result in assay [17] is “Active”.
